Measurements from US20110009616A1, “AGENT FOR PREVENTING ARTERIOSCLEROSIS” (priority 2006, published 2011).
Read-outs that look alike come from different tables or passages of the source.

Legend:
SR-AII = molecular target: T1, SR-AII (Homo sapiens, UniProt P21757); assay: DiI-OxLDL uptake into cells expressing SR-AII (Example 7); format: cell-based; conditions: FIG. 6
T1 construct: expressed in transfected cells; host or cells: COS-1 cells (transient, 48 h), pDEST26
T1 sequence (P21757 1-358 isoform P21757-2): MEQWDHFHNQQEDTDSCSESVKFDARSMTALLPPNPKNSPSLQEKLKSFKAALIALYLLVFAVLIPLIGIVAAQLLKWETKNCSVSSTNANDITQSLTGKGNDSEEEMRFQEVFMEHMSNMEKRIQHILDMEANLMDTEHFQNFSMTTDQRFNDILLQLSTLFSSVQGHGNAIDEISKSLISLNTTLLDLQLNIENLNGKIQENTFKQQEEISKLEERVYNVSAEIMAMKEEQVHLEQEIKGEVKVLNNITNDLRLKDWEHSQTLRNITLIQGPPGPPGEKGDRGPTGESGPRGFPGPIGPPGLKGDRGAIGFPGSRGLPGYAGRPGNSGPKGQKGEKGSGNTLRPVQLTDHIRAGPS
Protocol: As for cDNA cloning of human SR-AII, the full-length sequence (1,077 base pairs) was obtained by PCR using cDNA derived from human normal lien (Invitrogen) as a template. Additionally a CACC sequence was added to 5′-terminal of the upstream primer. The amplified PCR product was inserted to a pENTR/D-TOPO vector (Invitrogen) and transformed into Mach1 cells (Invitrogen). From the obtained transformant, clones supposed to have the plasmid which was correctly inserted with the SR-AII full-length sequence were selected in usual ways such as a colony PCR method, and the plasmid sequence was sequenced. Furthermore, for the plasmid ascertained to have the correct sequence by sequencing, a site-specific recombination reaction to pDEST26 (Invitrogen) as an expression vector for animal cells was carried out according to a manual. The obtained pDEST26 vector having the full-length sequence of […] was transformed into COS-1 cells (Health Science Research Resources Bank), and cultivated for 48 hours to obtain a transient expressed cell line. […] Nystatin (manufactured by Wako) was used as a specific inhibitor of caveola transport.

smooth muscle cells = assay: Oxidized LDL uptake into smooth muscle cells, IN Cell Analyzer (Example 8); format: cell-based; conditions: FIG. 7
Protocol: As for the compounds in Examples 1 and 2 and Comparative Example 6, the abilities to suppress the oxidized LDL uptake into the smooth muscle cells were evaluated in a similar method to Example 6.
The smooth muscle cells were prepared to 1×10^5 cells/mL and seeded into a 96-well plate. After cultivating for two days, the cells were treated by each inhibitor in a similar method to Example 6. After the treatment of each inhibitor, the cells were washed with PBS three times and fixed with a 10% formalin solution at room temperature in the dark for 10 minutes. The fixed cells were washed with ultrapure water twice and the nuclei were dyed with DAPI. These cells were analyzed with “IN Cell Analyzer” (manufactured by GE Healthcare Bio-Sciences KK), and the uptake number of Dil-labeled oxidized LDL into the smooth muscle cells was divided by the number of nuclei. Furthermore, 4 fields of view per well were measured and the measurements were n=3 per treatment.

[1] = human; Non-patent Document 15; cited from earlier work
[2] = rat; Non-patent Document 16; cited from earlier work
[3] = rats, intravenous injection; Non-patent Document 17; cited from earlier work

C=Cc1c(C)c2cc3nc(c4c5[nH]c(cc6nc(cc1[nH]2)C(C)=C6CC)c(C)c5C(=O)[C@@H]4C(=O)OC)[C@@H](CCC(=O)O)[C@@H]3C [pheophorbide a]
ability to suppress oxidized LDL uptake by SR-A (SR-AII): the ability to suppress the oxidized LDL uptake by SR-A
ability to suppress oxidized LDL uptake in smooth muscle cells (smooth muscle cells): very strong ability to suppress the uptake
suppression of oxidized LDL uptake in smooth muscle cells, compared with anti-LOX-1 antibody (smooth muscle cells): stronger suppression effect than that of the anti-LOX-1 antibody
ingestion causing photosensitivity disease [1]: ≥ 500 mg/day
ingestion causing photosensitivity disease [2]: ≥ 220 mg/kg
accumulation to skin [3]: low
main accumulation target [3]: reticuloendothelial system
